In ChEMBL document CHEMBL4325834, “De Novo Molecular Design of a Novel Octapeptide That Inhibits In Vivo Melanogenesis and Has Great Transdermal Ability” (J Med Chem, 2018):
The source made the active and inactive calls. The rule behind the calls is not given here. Where a SMILES comes first, the peptide text is derived from it.

Experiments:
[1] = Antioxidant activity assessed as DPPH free radical scavenging activity at 80 uM after 30 mins relative to control; assay type: functional
[2] = Antioxidant activity assessed as ABTS radical scavenging activity at 80 uM after 10 mins relative to control; assay type: functional
[3] = Reducing power of the compound assessed as reducing Fe3+ power at 80 uM using K3Fe(CN)6 in pH 6.6 phosphate buffer relative to control
Tyrosinase = target: T1, Tyrosinase (Agaricus bisporus, UniProt O42713); assay: Inhibition of mushroom tyrosinase using L-dopa as substrate assessed as reduction in dopachrome production after 20 mins by spectrophotometry
T1 sequence (O42713 whole entry): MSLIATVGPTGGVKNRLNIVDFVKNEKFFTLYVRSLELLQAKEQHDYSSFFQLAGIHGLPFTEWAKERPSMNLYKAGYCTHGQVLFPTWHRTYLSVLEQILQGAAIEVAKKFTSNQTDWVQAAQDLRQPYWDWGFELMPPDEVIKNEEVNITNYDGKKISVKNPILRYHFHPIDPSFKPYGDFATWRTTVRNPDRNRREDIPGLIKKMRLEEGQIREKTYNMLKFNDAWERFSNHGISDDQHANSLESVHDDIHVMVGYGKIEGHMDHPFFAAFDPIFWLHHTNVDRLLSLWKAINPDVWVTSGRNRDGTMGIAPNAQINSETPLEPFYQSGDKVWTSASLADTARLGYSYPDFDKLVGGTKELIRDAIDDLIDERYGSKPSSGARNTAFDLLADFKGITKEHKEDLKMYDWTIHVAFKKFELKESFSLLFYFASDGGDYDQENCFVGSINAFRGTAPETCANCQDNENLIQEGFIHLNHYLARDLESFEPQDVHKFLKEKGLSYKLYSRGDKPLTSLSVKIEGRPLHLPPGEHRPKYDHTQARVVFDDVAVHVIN

[4] = Hemolytic activity against human erythrocytes assessed as amount of hemoglobin released from lysed cells up to 150 uM relative to control; assay type: ADME, cell-based, Erythrocyte; settings: read-out: Activity
B16 [5] = assay: Cytotoxicity against mouse B16 cells up to 150 uM by MTT assay relative to control; assay type: cell-based
HaCaT = assay: Cytotoxicity against human HaCaT cells up to 150 uM by MTT assay relative to control; assay type: cell-based
[6] = target: T2, Tyrosinase (Mus musculus) (UniProt P11344); assay: Inhibition of TYR activity in mouse B16 cells assessed as increase in whitening at 20 uM preincubated for 72 hrs followed L-dopa substrate addition and measured after 4 hrs by fluorescence microscopy; assay type: cell-based
T2 sequence (whole entry): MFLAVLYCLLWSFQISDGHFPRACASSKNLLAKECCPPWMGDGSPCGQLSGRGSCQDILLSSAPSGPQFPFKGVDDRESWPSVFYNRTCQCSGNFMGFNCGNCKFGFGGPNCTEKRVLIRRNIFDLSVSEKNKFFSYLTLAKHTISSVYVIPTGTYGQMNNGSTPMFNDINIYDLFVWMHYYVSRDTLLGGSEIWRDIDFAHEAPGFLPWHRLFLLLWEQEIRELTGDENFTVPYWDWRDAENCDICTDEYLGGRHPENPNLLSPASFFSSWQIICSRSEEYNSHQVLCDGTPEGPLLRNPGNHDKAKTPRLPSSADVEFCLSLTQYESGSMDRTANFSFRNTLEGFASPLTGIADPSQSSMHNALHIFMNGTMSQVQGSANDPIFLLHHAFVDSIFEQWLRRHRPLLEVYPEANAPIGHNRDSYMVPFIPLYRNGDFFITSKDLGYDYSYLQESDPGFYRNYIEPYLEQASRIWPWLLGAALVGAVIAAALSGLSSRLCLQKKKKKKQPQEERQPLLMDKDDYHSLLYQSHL

[7] = target: T2, Tyrosinase (Mus musculus); assay: Inhibition of TYR activity in mouse B16 cells assessed as effect on pallet after exfoliation at 20 uM preincubated for 72 hrs followed L-dopa substrate addition and measured after 4 hrs by fluorescence microscopy; assay type: cell-based
[8] = target: T2, Tyrosinase (Mus musculus); assay: Inhibition of TYR activity in mouse B16 cells assessed as melanin levels post exfoliation at 20 uM after 72 hrs by spectrophotometric analysis relative to control; assay type: cell-based; parameters: scale not given: the % may be the effect or the level left
[9] = target: T2, Tyrosinase (Mus musculus); assay: Inhibition of TYR activity in mouse B16 cells 20 uM using L-dopa as substrate after 72 hrs relative to control; assay type: cell-based
B16 [10] = assay: Downregulation of TYR protein expression in mouse B16 cells after 72 hrs by Western blot analysis; assay type: functional, cell-based
B16 [11] = assay: Downregulation of MITF protein expression in mouse B16 cells after 72 hrs by Western blot analysis; assay type: functional, cell-based

Molecule | Activity [1] [%] | Activity [2] [%] | Activity [3] | IC50 (Tyrosinase) [µM] | hemolysis [4] [%] | Activity (B16 [5]) [%] | Activity (HaCaT) [%] | inhibition [6] | Activity [7] | Activity [8] [%] | inhibition [9] [%] | inhibition (B16 [10]) | inhibition (B16 [11])
CC(C)[C@H](NC(=O)[C@H](CCCNC(=N)N)NC(=O)[C@H](CS)NC(=O)[C@H](CO)NC(=O)[C@H](CCCNC(=N)N)NC(=O)[C@H](Cc1ccccc1)NC(=O)[C@@H](N)Cc1ccccc1)C(=O)N[C@@H](CS)C(=O)O (H-FFRSCRVC-OH) | 95 | 66 | 0.19 | 90 | 2 | 5 | 5 | – | – | – | – | – | –
CC(C)[C@H](NC(=O)[C@H](CO)NC(=O)[C@H](CCCNC(=N)N)NC(=O)[C@H](CS)NC(=O)[C@H](CO)NC(=O)[C@@H](NC(=O)[C@H](CCCNC(=N)N)NC(=O)[C@H](Cc1ccccc1)NC(=O)[C@@H](N)Cc1ccccc1)[C@@H](C)O)C(=O)N[C@@H](CS)C(=O)O (H-FFRTSCRSVC-OH) | 90 | 58 | 0.28 | 127 | 7 | 9 | 13 | – | – | – | – | – | –
CC(C)[C@H](N)C(=O)N[C@H](C(=O)N[C@@H](CCCCN)C(=O)N[C@@H](CS)C(=O)N[C@@H](CO)C(=O)N[C@@H](Cc1ccccc1)C(=O)N[C@@H](CCCNC(=N)N)C(=O)N1CCC[C@H]1C(=O)NCC(=O)N[C@@H](CO)C(=O)N1CCC[C@H]1C(=O)N[C@@H](C)C(=O)N1CCC[C@H]1C(=O)N[C@@H](CCCNC(=N)N)C(=O)N[C@@H](CS)C(=O)N[C@@H](CCCCN)C(=O)O)C(C)C (H-VVKCSFRPGSPAPRCK-OH) | 56 | 25 | 0.18 | 199 | 5 | 13 | 10 | – | – | – | – | – | –
CC[C@H](C)[C@H](NC(=O)[C@H](CS)NC(=O)[C@H](C)NC(=O)[C@@H](NC(=O)[C@H](CCCNC(=N)N)NC(=O)[C@H](C)NC(=O)[C@@H](NC(=O)[C@H](CC(N)=O)NC(=O)[C@@H](NC(=O)[C@H](CCSC)NC(=O)[C@H](Cc1c[nH]c2ccccc12)NC(=O)[C@H](Cc1cnc[nH]1)NC(=O)[C@@H](NC(=O)[C@@H](N)CS)C(C)C)[C@@H](C)O)[C@@H](C)O)[C@@H](C)O)C(=O)N[C@@H](C)C(=O)N1CCC[C@H]1C(=O)O (H-CVHWMTNTARTACIAP-OH) | 21 | 82 | 0.34 | 176 | – | – | – | – | – | – | – | – | –
CC[C@H](C)[C@H](NC(=O)[C@H](CS)NC(=O)[C@@H](NC(=O)[C@@H](NC(=O)[C@H](CCCNC(=N)N)NC(=O)[C@H](C)NC(=O)[C@@H](NC(=O)[C@H](CC(N)=O)NC(=O)[C@@H](NC(=O)[C@H](CCCNC(=N)N)NC(=O)[C@H](Cc1ccccc1)NC(=O)[C@H](CCCNC(=N)N)NC(=O)[C@@H](NC(=O)[C@@H](N)CS)C(C)C)[C@@H](C)O)[C@@H](C)O)[C@@H](C)O)C(C)C)C(=O)N[C@@H](C)C(=O)N1CCC[C@H]1C(=O)O (H-CVRFRTNTARTVCIAP-OH) | 43 | 36 | 0.18 | 166 | 5 | 13 | 15 | – | – | – | – | – | –
CC[C@H](C)[C@H](NC(=O)[C@H](CS)NC(=O)[C@H](CCCNC(=N)N)NC(=O)[C@H](CO)NC(=O)[C@@H](N)[C@@H](C)O)C(=O)N[C@@H](Cc1ccccc1)C(=O)N[C@@H](Cc1ccc(O)cc1)C(=O)N[C@@H](CCCNC(=N)N)C(=O)N[C@@H](CCCNC(=N)N)C(=O)N[C@@H](CCCCN)C(=O)N[C@@H](CCCCN)C(=O)N[C@@H](CS)C(=O)N[C@@H](CO)C(=O)O (H-TSRCIFYRRKKCS-OH) | 55 | 85 | 0.21 | 153 | – | – | – | – | – | – | – | – | –
CC[C@H](C)[C@H](NC(=O)[C@H](C)NC(=O)[C@@H]1CCCN1C(=O)[C@@H](NC(=O)[C@@H](N)Cc1ccccc1)C(C)C)C(=O)N[C@@H](CC(C)C)C(=O)N[C@@H](CS)C(=O)N[C@@H](CO)C(=O)N[C@H](C(=O)N[C@@H](CC(C)C)C(=O)N[C@@H](CCCCN)C(=O)N[C@H](C(=O)N[C@@H](CS)C(=O)O)[C@@H](C)O)[C@@H](C)CC (H-FVPAILCSILKTC-OH) | 74 | 48 | 0.23 | 147 | 4 | 12 | 11 | – | – | – | – | – | –
CC(C)[C@H](NC(=O)[C@H](CCCNC(=N)N)NC(=O)[C@H](Cc1ccccc1)NC(=O)[C@H](CS)NC(=O)[C@H](CCCNC(=N)N)NC(=O)[C@H](CO)NC(=O)[C@@H](N)[C@@H](C)O)C(=O)N[C@@H](CS)C(=O)O (H-TSRCFRVC-OH) | 99 | 50 | 0.24 | 106 | 1 | 11 | 9 | – | – | – | – | – | –
OC[C@H]1O[C@@H](Oc2ccc(O)cc2)[C@H](O)[C@@H](O)[C@@H]1O [ARBUTIN] | 22 | 53 | 0.12 | – | 27 | 29 | 31 | Active | Active | 76.3 | 10.4 | inactive | inactive
CC[C@H](C)[C@H](NC(=O)[C@H](CS)NC(=O)[C@H](CCCNC(=N)N)NC(=O)[C@H](CO)NC(=O)[C@@H](N)[C@@H](C)O)C(=O)N[C@@H](Cc1ccccc1)C(=O)N[C@@H](Cc1ccc(O)cc1)C(=O)N[C@@H](CCCNC(=N)N)C(=O)N[C@@H](CCCNC(=N)N)C(=O)N[C@@H](CS)C(=O)N[C@H](C(=O)N[C@@H](CS)C(=O)N[C@@H](CO)C(=O)O)C(C)C (H-TSRCIFYRRCVCS-OH) | 60 | 61 | 0.24 | 128 | 21 | 27 | 29 | – | – | – | – | – | –
C[C@@H](O)[C@H](NC(=O)[C@H](CO)NC(=O)[C@H](Cc1ccccc1)NC(=O)[C@@H](N)Cc1ccccc1)C(=O)N[C@@H](CO)C(=O)N[C@@H](CS)C(=O)N[C@@H](CCCNC(=N)N)C(=O)N[C@@H](CO)C(=O)NCC(=O)N[C@@H](CS)C(=O)O (H-FFSTSCRSGC-OH) | 45 | 80 | 0.21 | 187 | – | – | – | – | – | – | – | – | –
C[C@H](NC(=O)[C@H](CO)NC(=O)[C@H](CS)NC(=O)[C@H](CO)NC(=O)[C@@H](NC(=O)[C@H](CCCNC(=N)N)NC(=O)[C@@H](N)Cc1ccccc1)[C@@H](C)O)C(=O)N[C@@H](CS)C(=O)O (H-FRTSCSAC-OH) | 73 | 62 | 0.23 | 78 | 2 | 8 | 7 | – | – | – | – | – | –
H-TRAFRCVS-OH | 80 | 56 | 0.25 | 220 | 1 | 10 | 11 | – | – | – | – | – | –
